# From ChEMBL document CHEMBL1201862, “PubChem BioAssay data set” (2004)
# Calls of active or inactive are those of the source.
# Legend:
# [1] = target: Long-chain-fatty-acid--AMP ligase FadD28 (Mycobacterium tuberculosis, UniProt P9WQ59); experiment: Fluorescence polarization aasay to screen for inhibitors that compete for the binding of FadD28 to a bisubstrate Measured in Biochemical System Using Plate Reader - 2147-01_Inhibitor_Dose_CherryPick_Activity.; type: functional, Mycobacterium tuberculosis H37Rv
# Sequence of Long-chain-fatty-acid--AMP ligase FadD28 (P9WQ59 whole entry): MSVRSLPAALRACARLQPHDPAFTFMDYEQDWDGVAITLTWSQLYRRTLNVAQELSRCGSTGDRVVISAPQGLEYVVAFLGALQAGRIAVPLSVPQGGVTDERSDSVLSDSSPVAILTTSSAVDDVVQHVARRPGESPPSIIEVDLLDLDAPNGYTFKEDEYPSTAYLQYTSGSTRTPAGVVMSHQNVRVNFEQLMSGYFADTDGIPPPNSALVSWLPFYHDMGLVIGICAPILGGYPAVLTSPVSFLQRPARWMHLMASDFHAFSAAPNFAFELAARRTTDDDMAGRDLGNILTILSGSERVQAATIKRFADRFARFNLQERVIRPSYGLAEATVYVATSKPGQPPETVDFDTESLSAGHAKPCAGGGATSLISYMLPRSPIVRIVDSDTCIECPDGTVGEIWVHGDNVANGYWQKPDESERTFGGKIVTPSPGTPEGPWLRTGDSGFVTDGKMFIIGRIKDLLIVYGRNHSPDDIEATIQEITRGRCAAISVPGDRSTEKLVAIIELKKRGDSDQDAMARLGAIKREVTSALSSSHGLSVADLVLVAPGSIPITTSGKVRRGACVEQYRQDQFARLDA
# [2] = target: Fructose-bisphosphate aldolase (Mycobacterium tuberculosis, UniProt P9WQA3); experiment: Fluorescence-based biochemical high throughput dose response assay for inhibitors of the fructose-bisphosphate aldolase (FBA) of M. tuberculosis.; type: functional
# Sequence of Fructose-bisphosphate aldolase (P9WQA3 whole entry): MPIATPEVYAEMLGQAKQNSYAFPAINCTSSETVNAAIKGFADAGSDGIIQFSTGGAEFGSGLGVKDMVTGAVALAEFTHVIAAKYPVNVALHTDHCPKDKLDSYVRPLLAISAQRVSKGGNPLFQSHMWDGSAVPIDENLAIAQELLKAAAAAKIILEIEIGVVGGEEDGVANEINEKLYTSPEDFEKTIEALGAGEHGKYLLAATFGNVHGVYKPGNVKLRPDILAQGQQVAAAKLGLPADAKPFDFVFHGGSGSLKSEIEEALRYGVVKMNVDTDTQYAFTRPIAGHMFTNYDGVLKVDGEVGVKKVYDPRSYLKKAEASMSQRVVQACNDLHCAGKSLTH
# Vero = experiment: Vero cell toxicity, dose response, cytotoxicity control, plate reader, cherry-pick samples (AID 687020); type: functional, cell-based; details: Chlorocebus sabaeus
# [3] = HeLa cell cytotoxicity, dose response, cytotoxicity control, 24 h, plate reader, dry powder (AID 686928); type: functional, cell-based
# [4] = NIH-3T3 fibroblast cytotoxicity, dose response, cytotoxicity control, cell-based, fluorescence, Alamar Blue, secondary assay (AID 2327); type: functional;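 note: NIH-3T3 mouse fibroblasts cultured with fluconazole at 8 µg/mL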
# [5] = C. albicans growth with fluconazole, confirmation, fluorescence, retest (AID 2467); type: functional, cell-based
# [6] = THP-1 cell cytotoxicity, dose response, cytotoxicity control for non-replicating M. tuberculosis project (AID 489025); type: functional
# [7] = HepG2 cell cytotoxicity, dose response, cytotoxicity control for non-replicating M. tuberculosis project (AID 489018); type: functional; details: Mycobacterium tuberculosis
# [8] = Vero E6 cell cytotoxicity, dose response, cytotoxicity control for non-replicating M. tuberculosis project, secondary assay (AID 492998); type: functional, VeroE6; details: Vero C1008
# cells [9] = type: functional
# Albumin = Albumin (Bos taurus, UniProt P02769); experiment: Counterscreen for inhibitors of T-cell receptor (TCR)-CD3 interaction: Fluorescence-based biochemical high throughput dose response assay to identify inhibitors of T-cell receptor (TCR)-CD3 interaction using a TAMRA-labeled BSA probe.; type: functional
# Sequence of Albumin (P02769 whole entry): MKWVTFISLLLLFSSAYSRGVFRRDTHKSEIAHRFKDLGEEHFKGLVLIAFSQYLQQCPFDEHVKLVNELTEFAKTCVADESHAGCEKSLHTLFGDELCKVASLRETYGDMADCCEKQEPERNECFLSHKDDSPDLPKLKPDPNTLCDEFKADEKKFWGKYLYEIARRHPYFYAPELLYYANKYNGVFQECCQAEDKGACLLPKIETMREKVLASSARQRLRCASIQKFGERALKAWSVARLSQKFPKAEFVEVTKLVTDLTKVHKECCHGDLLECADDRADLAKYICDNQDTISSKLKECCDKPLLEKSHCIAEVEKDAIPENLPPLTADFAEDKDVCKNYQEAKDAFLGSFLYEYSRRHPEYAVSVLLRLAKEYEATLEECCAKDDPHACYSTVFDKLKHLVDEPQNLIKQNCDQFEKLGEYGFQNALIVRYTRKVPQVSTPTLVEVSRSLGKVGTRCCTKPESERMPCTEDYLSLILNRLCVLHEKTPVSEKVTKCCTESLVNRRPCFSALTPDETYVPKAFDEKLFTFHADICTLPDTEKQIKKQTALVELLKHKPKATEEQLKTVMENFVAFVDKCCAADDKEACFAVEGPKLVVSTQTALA
# Cytochrome P450 2D6 = Cytochrome P450 2D6 (Homo sapiens, UniProt P10635);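 note: CYP2D6 member of a cytochrome P450 panel assay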
# Sequence of Cytochrome P450 2D6 (P10635 whole entry): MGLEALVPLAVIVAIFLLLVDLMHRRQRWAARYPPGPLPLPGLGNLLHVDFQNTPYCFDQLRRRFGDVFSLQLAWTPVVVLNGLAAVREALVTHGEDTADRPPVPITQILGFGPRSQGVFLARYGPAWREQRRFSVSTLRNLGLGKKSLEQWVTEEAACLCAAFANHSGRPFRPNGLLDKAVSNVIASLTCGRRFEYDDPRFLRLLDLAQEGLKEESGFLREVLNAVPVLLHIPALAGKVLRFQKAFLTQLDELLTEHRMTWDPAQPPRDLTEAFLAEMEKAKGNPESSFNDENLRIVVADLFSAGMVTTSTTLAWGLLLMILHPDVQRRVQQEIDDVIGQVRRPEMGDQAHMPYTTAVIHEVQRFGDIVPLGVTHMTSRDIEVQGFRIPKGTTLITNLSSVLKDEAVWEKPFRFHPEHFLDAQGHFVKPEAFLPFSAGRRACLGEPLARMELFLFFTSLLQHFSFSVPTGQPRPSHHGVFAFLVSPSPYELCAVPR
# Cytochrome P450 1A2 = target: T1, Cytochrome P450 1A2 (Homo sapiens, UniProt P05177);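 note: PubChem cytochrome P450 panel assay, CYP1A2 panel member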
# T1 sequence (P05177 whole entry): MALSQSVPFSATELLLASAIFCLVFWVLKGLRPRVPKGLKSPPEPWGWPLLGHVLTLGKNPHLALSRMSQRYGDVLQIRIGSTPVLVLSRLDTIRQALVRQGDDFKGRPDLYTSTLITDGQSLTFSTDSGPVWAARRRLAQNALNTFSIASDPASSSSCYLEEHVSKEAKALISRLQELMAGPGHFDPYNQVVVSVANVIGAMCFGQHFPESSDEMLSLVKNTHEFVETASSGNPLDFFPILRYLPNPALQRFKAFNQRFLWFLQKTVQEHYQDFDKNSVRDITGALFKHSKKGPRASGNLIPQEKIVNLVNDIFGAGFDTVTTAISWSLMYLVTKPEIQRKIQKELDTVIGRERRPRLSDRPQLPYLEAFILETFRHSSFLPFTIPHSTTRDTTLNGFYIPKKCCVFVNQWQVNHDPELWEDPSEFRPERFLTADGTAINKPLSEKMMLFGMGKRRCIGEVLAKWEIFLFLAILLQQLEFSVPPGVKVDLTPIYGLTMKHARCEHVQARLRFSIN
# Cytochrome P450 2C9 = Cytochrome P450 2C9 (Homo sapiens, UniProt P11712)
# Sequence of Cytochrome P450 2C9 (P11712 whole entry): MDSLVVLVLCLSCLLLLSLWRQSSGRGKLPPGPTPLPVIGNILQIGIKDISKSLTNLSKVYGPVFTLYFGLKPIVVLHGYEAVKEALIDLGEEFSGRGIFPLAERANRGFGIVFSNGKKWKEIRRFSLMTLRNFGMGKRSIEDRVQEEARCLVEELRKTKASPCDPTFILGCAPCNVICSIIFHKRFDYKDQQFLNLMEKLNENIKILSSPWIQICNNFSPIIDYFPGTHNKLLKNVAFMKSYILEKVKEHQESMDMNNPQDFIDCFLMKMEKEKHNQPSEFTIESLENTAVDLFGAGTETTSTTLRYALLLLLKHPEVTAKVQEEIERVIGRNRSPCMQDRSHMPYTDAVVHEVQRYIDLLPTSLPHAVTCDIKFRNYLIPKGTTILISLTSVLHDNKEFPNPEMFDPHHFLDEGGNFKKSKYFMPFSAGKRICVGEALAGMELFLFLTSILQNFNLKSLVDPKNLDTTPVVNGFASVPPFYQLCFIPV
# [10] = system: Streptococcus sp. 'group A'; experiment: growth inhibition of control SK(-) GAS strain, dose response, counter-screen for streptokinase expression inhibitor project, luminescence, kanamycin, BacTiterGlo, confirmation (AID 1900); type: functional, organism-based
# Streptokinase A = target: T2, Streptokinase A (Streptococcus pyogenes serotype M1, UniProt P10520); experiment: S. pyogenes streptokinase expression inhibitors, potency, dose response, plasminogen activation absorbance, OD405 (AID 1914); type: functional, Streptococcus pyogenes M1 GAS;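 note: secreted streptokinase activity via plasminogen activation per viability signal from cell pellet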
# T2 sequence (P10520 whole entry): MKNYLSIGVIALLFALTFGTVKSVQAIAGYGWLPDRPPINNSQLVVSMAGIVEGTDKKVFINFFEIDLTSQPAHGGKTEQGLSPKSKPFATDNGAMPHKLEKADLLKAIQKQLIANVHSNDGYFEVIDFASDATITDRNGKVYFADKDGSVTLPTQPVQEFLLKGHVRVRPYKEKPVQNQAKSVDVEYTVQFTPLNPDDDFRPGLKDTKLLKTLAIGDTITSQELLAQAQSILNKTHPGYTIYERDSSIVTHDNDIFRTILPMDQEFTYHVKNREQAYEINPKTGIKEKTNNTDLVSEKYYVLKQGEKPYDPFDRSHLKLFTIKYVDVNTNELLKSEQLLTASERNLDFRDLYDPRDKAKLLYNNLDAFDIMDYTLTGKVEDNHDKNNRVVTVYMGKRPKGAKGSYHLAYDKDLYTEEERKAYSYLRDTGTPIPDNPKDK
# [11] = inhibitors of intracellular T. cruzi replication, confirmation, NIH3T3 host cells, beta-gal luminescence (AID 2044); type: functional, cell-based;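 note: intracellular parasites grown in NIH/3T3 mouse fibroblasts as host cells; luminescent beta-galactosidase reporter signal from transgenic T. cruzi replicating inside host cells; inhibitors lower the luminescence signal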
# [12] = cytotoxicity toward NIH3T3 fibroblasts, dose response, counter-screen, cell-based, ATP luminescence, mouse fibroblasts (AID 2010); type: functional;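 note: cells exposed to compound for about 90 hours before reading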
# Streptococcus = experiment: Group A Streptococcus viability loss, dose response, counter-screen for streptokinase expression inhibitor project, luminescence, BacTiterGlo (AID 1915); type: functional, organism-based;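 note: potency for reduction of bacterial viability or growth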
# INS1 = experiment: beta cell apoptosis inhibitors, cytokine rescue, dose response, luminescence, retest (AID 449756); type: functional, cell-based; details: Rattus norvegicus;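 note: cell death triggered by IL-1 beta plus TNF-alpha plus IFN-gamma mixture; protective hits raise ATP signal compared with cytokine alone wells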
# [13] = target: T3, Methionyl-tRNA synthetase, putative (Trypanosoma brucei brucei, UniProt Q38C91); type: functional, Trypanosoma brucei brucei strain 927/4 GUTat10.1
# T3 sequence (Q38C91 whole entry): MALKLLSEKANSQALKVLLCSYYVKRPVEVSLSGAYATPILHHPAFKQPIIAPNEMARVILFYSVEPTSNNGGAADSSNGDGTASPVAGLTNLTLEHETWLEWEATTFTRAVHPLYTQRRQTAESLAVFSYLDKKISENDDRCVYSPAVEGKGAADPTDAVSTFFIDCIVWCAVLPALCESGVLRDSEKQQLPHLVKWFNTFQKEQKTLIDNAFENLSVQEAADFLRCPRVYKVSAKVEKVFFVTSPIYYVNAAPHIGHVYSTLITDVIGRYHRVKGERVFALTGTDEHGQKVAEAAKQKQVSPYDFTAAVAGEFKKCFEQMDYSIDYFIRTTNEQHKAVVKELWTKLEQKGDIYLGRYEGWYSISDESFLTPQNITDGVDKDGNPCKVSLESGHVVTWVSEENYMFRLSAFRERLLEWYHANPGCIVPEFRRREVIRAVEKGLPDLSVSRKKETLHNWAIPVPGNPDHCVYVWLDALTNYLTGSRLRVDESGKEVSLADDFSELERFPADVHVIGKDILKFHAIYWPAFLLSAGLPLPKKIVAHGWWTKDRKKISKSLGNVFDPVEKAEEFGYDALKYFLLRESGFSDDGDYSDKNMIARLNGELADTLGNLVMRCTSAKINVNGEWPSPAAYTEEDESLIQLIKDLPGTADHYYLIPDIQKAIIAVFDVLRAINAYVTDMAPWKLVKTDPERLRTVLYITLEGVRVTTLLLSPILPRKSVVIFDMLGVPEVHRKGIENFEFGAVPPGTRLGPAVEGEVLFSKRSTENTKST
# [14] = target: T3, Methionyl-tRNA synthetase, putative; type: functional, Trypanosoma brucei brucei strain 927/4 GUTat10.1; remark: listed apart in the source
# [15] = inhibitors of HIV Env-driven cell fusion, dose response, cherry-pick (AID 652057); type: functional, cell-based
# [16] = CEM21 lymphoblast cell cytotoxicity, dose response, cytotoxicity control for viral fusion inhibitor project, CellTiter-Glo luminescence, cherry-picked (AID 652042); type: functional, cell-based;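 note: potency for signal decrease meaning cytotoxicity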
# [17] = ZM109 Env clade C HIV-1 fusion inhibitors, dose response, HeLa effector, CEM target cells, luciferase, cherry-pick (AID 652058); type: functional, cell-based
# [18] = off-target signal loss in HeLa-CEM21 co-culture – HeLa F-luc CTL cells, cherry-picked, counter-screen for HIV-1 Env fusion inhibitor project, dose response (AID 652040); type: functional, cell-based;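 note: potency for signal decrease marking cytotoxic or nonspecific inhibition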
# [19] = inhibitors of clade B AD8 Env fusion, dose response, cell-based, cherry-pick (AID 652062); type: functional;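 note: luciferase signal from cell-cell fusion driven by HIV-1 clade B AD8 Env; potency is for inhibitors of fusion seen as a drop in luminescence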
# Beta-lactamase [20] = target: Beta-lactamase (Pseudomonas aeruginosa, UniProt Q79MP6);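 note: biochemical dose-response test of metallo-beta-lactamase enzyme inhibition, read out by epi-absorbance; purified recombinant IMP-1 metallo-beta-lactamase with nitrocefin as substrate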
# Sequence of Beta-lactamase (Pseudomonas aeruginosa, UniProt Q79MP6) (Q79MP6 whole entry): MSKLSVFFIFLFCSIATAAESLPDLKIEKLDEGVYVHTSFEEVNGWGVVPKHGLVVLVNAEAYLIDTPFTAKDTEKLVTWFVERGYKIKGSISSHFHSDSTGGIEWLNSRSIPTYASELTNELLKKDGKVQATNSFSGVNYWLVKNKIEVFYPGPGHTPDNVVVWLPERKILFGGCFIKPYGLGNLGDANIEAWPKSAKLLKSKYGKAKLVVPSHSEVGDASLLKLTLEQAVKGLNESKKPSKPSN
# Beta-lactamase [21] = target: Beta-lactamase (Salmonella choleraesuis (strain SC-B67), UniProt Q5J463)
# Sequence of Beta-lactamase (Salmonella choleraesuis (strain SC-B67), UniProt Q5J463) (Q5J463 whole entry): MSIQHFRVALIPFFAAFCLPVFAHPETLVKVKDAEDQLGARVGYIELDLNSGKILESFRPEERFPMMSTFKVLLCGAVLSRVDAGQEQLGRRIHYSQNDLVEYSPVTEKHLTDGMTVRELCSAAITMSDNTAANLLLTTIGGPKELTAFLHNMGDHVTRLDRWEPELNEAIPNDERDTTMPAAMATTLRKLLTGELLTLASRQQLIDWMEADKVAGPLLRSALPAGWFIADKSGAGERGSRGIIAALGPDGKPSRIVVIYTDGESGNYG
# Melanocortin receptor 4 = Melanocortin receptor 4 (Homo sapiens, UniProt P32245); type: functional, cell-based;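 note: Cell-based assay with luminescence read-out, confirmatory dose-response testing for agonist activity of biased ligands at MC4R; human U2OS cells with tagged receptor and beta-arrestin; potency of agonists that increase receptor coupling to beta-arrestin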
# Sequence of Melanocortin receptor 4 (P32245 whole entry): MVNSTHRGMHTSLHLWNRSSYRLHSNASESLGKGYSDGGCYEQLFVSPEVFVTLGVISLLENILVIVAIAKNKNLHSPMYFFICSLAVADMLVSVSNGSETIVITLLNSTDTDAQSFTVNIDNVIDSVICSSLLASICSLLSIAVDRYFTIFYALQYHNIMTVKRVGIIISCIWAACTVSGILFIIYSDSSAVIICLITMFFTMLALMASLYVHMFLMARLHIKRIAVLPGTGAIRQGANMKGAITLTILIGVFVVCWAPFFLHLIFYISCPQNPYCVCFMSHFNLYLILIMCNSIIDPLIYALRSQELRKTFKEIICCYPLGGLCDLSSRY
# [22] = Counterscreen for inhibitors of Trypanosoma brucei methionyl tRNA synthetase (MetRS): Luminescence-based cell-based high throughput dose response assay to identify compounds that are cytotoxic to Jurkat human T lymphocyte cells.; type: functional
# [23] = cytotoxicity in HPDE-C7 cells, cell-based, fluorescence, HTS (AID 430); type: functional; details: Homo sapiens
# [24] = cytotoxicity in KRAS-transformed pancreatic duct cells, primary screen, cell-based, fluorescence, HTS (AID 431); type: functional; details: Homo sapiens;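 note: cell line used: HPDE-C7K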
# [25] = growth suppression of PTEN-null colon cells, dose response, cell-based, HCT116 PTEN knockout (AID 1047); type: functional;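 note: HCT116 colon tumor cells with PTEN knocked out; cells exposed to compound for 60 hours before readout; potency for loss of cell viability measured by luminescence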
# [26] = growth suppression of beta-catenin-knockout colon cells, dose response, cell-based, HCT116, human colon tumor (AID 1045); type: functional;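 note: HCT116 colon tumor cells with beta catenin knocked out; cells exposed to compound for 60 hours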
# cells [27] = type: functional, cell-based
# [28] = target: T4, Trace amine-associated receptor 1 (Homo sapiens, UniProt Q96RJ0); experiment: Fluorescence-based cell-based high throughput dose response assay to identify agonists of the human trace amine associated receptor 1 (TAAR1).; type: functional
# T4 sequence (Q96RJ0 whole entry): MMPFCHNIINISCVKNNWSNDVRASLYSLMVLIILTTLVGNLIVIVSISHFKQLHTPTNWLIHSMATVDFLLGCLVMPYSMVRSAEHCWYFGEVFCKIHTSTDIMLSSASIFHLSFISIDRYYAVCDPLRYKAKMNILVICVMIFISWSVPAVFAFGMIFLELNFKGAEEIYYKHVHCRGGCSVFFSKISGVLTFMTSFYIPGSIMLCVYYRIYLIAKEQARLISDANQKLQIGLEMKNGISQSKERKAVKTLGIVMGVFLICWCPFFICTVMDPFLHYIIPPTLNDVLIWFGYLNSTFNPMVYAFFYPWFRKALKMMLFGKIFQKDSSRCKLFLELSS
# [29] = target: T4, Trace amine-associated receptor 1; experiment: Counterscreen for agonists of the human trace amine associated receptor 1 (hTAAR1): Fluorescence-based cell-based high throughput dose response assay to identify hTAAR1 agonist that also desensitize TAAR1 receptor response.; type: functional
# cells [30] = type: functional, cell-based; remark: listed apart in the source
smiles,measurement,setting,value
COc1cccc(NC(=O)CC(=O)c2ccc([N+](=O)[O-])cc2)c1,AC50,[1],94.1 µM (active)
O=C(Nc1ccc2c(c1)OCCO2)c1cccs1,IC50,[2],> 9.98 µM (inactive)
COC(=O)C[C@H]1c2cc(C(F)(F)F)ccc2S(=O)(=O)N1Cc1ccc(OC)cc1,AC50,Vero,34.6 µM (active)
Cc1cc2cc3c(NC(=O)c4ccco4)nn(C)c3nc2cc1C,AC50,[3],147 µM (active)
COc1ccc(C(=O)NNC(=S)NC(=O)c2cccc([N+](=O)[O-])c2)cc1,EC50,[4],> 160 µM (inactive)
same,EC50,[5],2.63 µM (active)
same,CC50,[6],19.3 µM (active)
same,CC50,[7],> 20 µM (active)
same,CC50,[8],17.9 µM (active)
same,IC50,cells [9],18.9 µM (active)
same,IC50,Albumin,> 94.1 µM (inactive)
COc1ccccc1NCc1nnc(SCC(=O)N/N=C/c2ccco2)n1-c1ccc(Cl)cc1Cl,AC50,[1],> 100 µM (inactive)
same,AC50,Cytochrome P450 2D6,28.2 µM (inconclusive)
same,AC50,Cytochrome P450 1A2,28.2 µM (inconclusive)
same,AC50,Cytochrome P450 2C9,35.5 µM (inconclusive)
C/C(=N\NC(=O)c1nnn(-c2nonc2N)c1CN(C)c1ccccc1)c1ccccc1O,EC50,[10],5.37 µM (active)
same,EC50,Streptokinase A,> 150 µM (not active)
same,EC50,[11],0.403 µM (active)
same,EC50,[12],5.57 µM (active)
same,EC50,Streptococcus,5.74 µM (active)
same,AC50,INS1,2.15 µM (active)
same,IC50,Albumin,> 94.1 µM (inactive)
Cc1cccc(NS(=O)(=O)c2ccc3nc(-c4ccccc4)[nH]c3c2)c1C,IC50,[13],119 µM (inactive)
same,IC50,[14],14.6 µM (inactive)
CCOc1ccc(C(O)(CCC(C)C)C(CN2CCOCC2)c2ccccc2)cc1 (centres undefined),AC50,[15],3.6 µM (active)
same,AC50,[16],26.8 µM (active)
same,AC50,[17],3.65 µM (active)
same,AC50,[18],5.42 µM (active)
same,AC50,[19],9.83 µM (active)
O=C(CCN1C(=O)/C(=C/c2ccc(Cl)cc2)SC1=S)NCCCn1ccnc1,IC50,Beta-lactamase [20],> 59.6 µM (inactive)
same,IC50,Beta-lactamase [21],> 59.6 µM (inactive)
CSc1nccc(Oc2ccccc2Cl)n1,IC50,[2],> 9.99 µM (inactive)
NC(Cc1ccc(C(F)(F)F)cc1)c1csc(NC(=O)Nc2ccccc2)n1 (centres undefined),EC50,Melanocortin receptor 4,> 89.2 µM (inactive)
same,IC50,[13],1.47 µM (active)
same,IC50,[22],24.7 µM (inactive)
same,IC50,[14],2.39 µM (active)
same,AC50,[15],2.85 µM (active)
same,AC50,[16],11.3 µM (active)
same,AC50,[17],2.21 µM (active)
same,AC50,[18],3.13 µM (active)
same,AC50,[19],8.46 µM (active)
O=C(CCN1CCC(c2ccccc2)C1)c1cccs1 (centres undefined),EC50,[23],> 20 µM (not active)
same,EC50,[24],> 20 µM (not active)
same,EC50,[25],34.1 µM (active)
same,EC50,[26],29.3 µM (active)
same,IC50,cells [27],> 29.9 µM (inactive)
same,EC50,[28],0.157 µM (active)
same,IC50,[29],1.49 µM (active)
same,EC50,cells [30],> 29.9 µM (inactive)
Cc1ccc(NC(=O)Cn2cccc2C2=NC(c3ccccc3)CO2)cc1C (centres undefined),AC50,Vero,27.9 µM (active)
CCCCC(CC)CNC(=O)C1C2C=CC(C2)C1C(=O)O (centres undefined),IC50,cells [27],> 29.9 µM (inactive)
same,EC50,[28],> 29.9 µM (inactive)
same,IC50,[29],> 29.9 µM (inactive)
same,EC50,cells [30],> 29.9 µM (inactive)
